This assay has as its target T1, Neuropeptide Y receptor type 1 (Homo sapiens, UniProt P25929).
T1 sequence (P25929 whole entry): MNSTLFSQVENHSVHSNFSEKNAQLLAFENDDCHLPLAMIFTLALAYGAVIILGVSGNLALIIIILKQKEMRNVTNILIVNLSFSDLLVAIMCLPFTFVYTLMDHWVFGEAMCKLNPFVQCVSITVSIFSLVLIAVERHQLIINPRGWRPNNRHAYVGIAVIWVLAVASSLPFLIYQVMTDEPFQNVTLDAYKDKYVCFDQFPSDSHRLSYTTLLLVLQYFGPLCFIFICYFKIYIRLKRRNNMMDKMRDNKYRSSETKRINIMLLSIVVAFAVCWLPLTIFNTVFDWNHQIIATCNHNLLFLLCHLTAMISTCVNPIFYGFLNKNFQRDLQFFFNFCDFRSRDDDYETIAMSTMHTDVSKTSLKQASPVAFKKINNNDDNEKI
The assay is described as follows: Inhibition of binding of [125I]PYY to membranes of SK-N-MC cells expressing the human Y1 receptors.
What is called IC50 is the concentration that inhibits the measured activity by half. Read a low IC50 as greater potency in that assay. On to `COC(=O)C1=C(C)N=C(C)C(C(=O)OC)C1c1cccc(NC(=NC#N)NCCNC2CCN(c3ccccc3SC)CC2)c1` (stereo unspecified) [N-arylpiperazine derivative], for which the half-maximal inhibitory concentration (IC50) came to 3 nM. Consider `COC(=O)C1=C(C)NC(C)=C(C(=O)OC)C1c1cccc(NC(=O)NCCNC2CCN(c3ccccc3[N+](=O)[O-])CC2)c1` [2,6-Dimethyl-4-[3-(3-{2-[1-(2-nitro-phenyl)-piperidin-4-ylamino]-ethyl}-ureido)-phenyl]-1,4-dihydro-pyridine-3,5-dicarboxylic acid dimethyl ester], for which the 50% inhibitory concentration (IC50) worked out at 2 nM. The same measure for `COC(=O)C1=C(C)N=C(C)C(C(=O)OC)C1c1cccc(NC(=O)NCCNC2CCN(c3ccccc3SC)CC2)c1` (stereo unspecified) [2,6-Dimethyl-4-[3-(3-{2-[1-(2-methylsulfanyl-phenyl)-piperidin-4-ylamino]-ethyl}-ureido)-phenyl]-1,4-dihydro-pyridine-3,5-dicarboxylic acid dimethyl ester]: 5 nM. The figure for `COC(=O)C1=C(C)N=C(C)C(C(=O)OC)C1c1cccc(NC(=NC#N)NCCNC2CCN(c3ccccc3C)CC2)c1` (stereo unspecified) [N-arylpiperazine derivative] is 4 nM. The same measure for `COC(=O)C1=C(C)NC(C)=C(C(=O)OC)C1c1cccc(NC(=NC#N)NCCNC2CCN(c3ccccc3[N+](=O)[O-])CC2)c1` [N-arylpiperazine derivative]: 4 nM; for `COC(=O)C1=C(C)N=C(C)C(C(=O)OC)C1c1cccc(NC(=O)NCCNC2CCN(c3ccccc3C#N)CC2)c1` (stereo unspecified) [4-[3-(3-{2-[1-(2-Cyano-phenyl)-piperidin-4-ylamino]-ethyl}-ureido)-phenyl]-2,6-dimethyl-1,4-dihydro-pyridine-3,5-dicarboxylic acid dimethyl ester]: 3 nM. As for `COC(=O)C1=C(C)N=C(C)C(C(=O)OC)C1c1cccc(NC(=NC#N)NCCNC2CCN(c3ccccc3C#N)CC2)c1` (stereo unspecified) [N-arylpiperazine derivative], the IC50 was determined as 3 nM. `COC(=O)C1=C(C)N=C(C)C(C(=O)OC)C1c1cccc(NC(=O)NCCNC2CCN(c3ccccc3)CC2)c1` (stereo unspecified) [2,6-Dimethyl-4-(3-{3-[2-(1-phenyl-piperidin-4-ylamino)-ethyl]-ureido}-phenyl)-1,4-dihydro-pyridine-3,5-dicarboxylic acid dimethyl ester] displayed an IC50 of 2 nM. The figure for `COC(=O)C1=C(C)N=C(C)C(C(=O)OC)C1c1cccc(NC(=O)NCCNC2CCN(c3ccccc3C)CC2)c1` (stereo unspecified) [2,6-Dimethyl-4-(3-{3-[2-(1-o-tolyl-piperidin-4-ylamino)-ethyl]-ureido}-phenyl)-1,4-dihydro-pyridine-3,5-dicarboxylic acid dimethyl ester] is 4 nM; for `COC(=O)C1=C(C)N=C(C)C(C(=O)OC)C1c1cccc(NC(=NC#N)NCCNC2CCN(c3cccc(Cl)c3)CC2)c1` (stereo unspecified) [N-arylpiperazine derivative] it is 8 nM. The figure for `COC(=O)C1=C(C)N=C(C)C(C(=O)OC)C1c1cccc(NC(=O)NCCNC2CCN(c3cccc(Cl)c3)CC2)c1` (stereo unspecified) [4-[3-(3-{2-[1-(3-Chloro-phenyl)-piperidin-4-ylamino]-ethyl}-ureido)-phenyl]-2,6-dimethyl-1,4-dihydro-pyridine-3,5-dicarboxylic acid dimethyl ester] is 8 nM.

The record behind these values is BindingDB's records for doi:10.1016/j.bmcl.2004.10.005 (Bristol Myers Squibb, 2004).
